Test results from patent publication US20060148730A1, “Method of treating tuberculosis” (priority 2003, published 2006).
pIC50: −log10 of the molar value. Values after ≈ are worked out from the molar mass of the structure shown. “Also recorded” adds a separate entry of the source. Where two headings read alike, the source gives them in different places.

What was measured:
[1] = system: M. tuberculosis H37Rv; assay: MIC vs. M. tuberculosis H37Rv, microplate Alamar Blue assay (MABA); format: cell-based; settings: for enhancement in potency of macrolide over counterpart ketolide: MIC ratio ketolide/macrolide; for anti-TB activity / MIC in words: result in words
[2] = system: M. tuberculosis; settings: literature (Luna-Herrera 1995; Truffot-Pernot 1995); cited from earlier work
[3] = system: M. tuberculosis H37Rv; settings: cited from earlier work
[4] = system: VERO cells
[5] = system: VERO cells; assay: Cytotoxicity against VERO cells (MTS, 72 hours); settings: for pIC50: Chlorocebus sabaeus, Vero
[6] = system: J774.1 macrophage cell line; assay: Cytotoxicity against J774.1 macrophage cell line; format: cell-based, murine; settings: Mus musculus, J774.1; Table 1a; toxicity; read-out: J774 IC50
[7] = system: M. tuberculosis Erdman; format: in vivo, BALB/c mice
[8] = Overt toxicity in mice, escalating 5-day dosing cycles; format: in vivo, Balb/C mice; settings: once daily, 5-day cycles, sequentially 200, 300, 400, 500 mg/kg
Experimental: Prior to assessing in vivo efficacy, RU66252 and RU69874 were administered to pairs of female Balb/C mice once daily for 5-day cycles, and observed for overt signs of toxicity (e.g., weight loss, ruffled fur, and huddling), after which the mice were rested for 1 or 2 days. Then the dosage was increased for another 5-day cycle. Overall, the same mice received sequentially for 5 days: 200, 300, 400, and 500 mg/kg.

Compound: CC[C@H]1OC(=O)[C@H](C)[C@@H](O[C@H]2C[C@@](C)(OC)[C@@H](O)[C@H](C)O2)[C@H](C)[C@@H](O[C@@H]2O[C@H](C)C[C@H](N(C)C)[C@H]2O)[C@](C)(OC)C[C@@H](C)C(=O)[C@H](C)[C@@H](O)[C@]1(C)O [Clarithromycin, reference compound]
- enhancement in potency of macrolide over counterpart ketolide [1]: 16 fold
- MIC ([1]; Table 2a, 11,12-diols, anti-TB activity, read-out: MIC): 8 µM (≈ 5.98 µg/mL)
- activity in mouse models [2]: marginal and nil

Compound: NNC(=O)c1ccncc1 [Isoniazid]
- expected MIC range of positive quality control compound [3]: 0.025 to 0.1 µg/mL

Compound: CCCCCCCCCCN1CCCC(O/N=C2\[C@H](C)C[C@@](C)(OC)[C@H](O[C@@H]3O[C@H](C)C[C@H](N(C)C)[C@H]3O)[C@@H](C)C(=O)[C@@H](C)C(=O)O[C@H](CC)[C@@](C)(O)[C@H](O)[C@H]2C)C1 (some centres unmarked) [RU60887]
- anti-TB activity / MIC in words [1]: most potent of the tested 9-oxime compounds; also recorded: very low
- in vitro toxicity / cytotoxicity in words [4]: comparable to clarithromycin
- selectivity index (SI), VERO cells [5]: 221

Compound: CC[C@H]1OC(=O)[C@H](C)C(OC2CC(C)(OC)[C@@H](O)[C@H](C)O2)[C@H](C)[C@@H](O[C@@H]2O[C@H](C)C[C@H](N(C)C)[C@H]2O)[C@](C)(OC)C[C@@H](C)C(=O)[C@H](C)[C@H]2N(NCCCc3ccnc4ccccc34)C(=O)O[C@]12C (some centres unmarked) [RU66252]
- enhancement in potency of macrolide over counterpart ketolide [1]: 16 fold
- MIC ([1]; Mycobacterium tuberculosis, H37RV, Table 1a, 11,12-carbamate derivatives, anti-TB activity, read-out: MIC): 0.25 µM (≈ 0.239 µg/mL)
- MIC ([1]; Mycobacterium tuberculosis, H37RV, Table 3, parallel-synthesis carbazate library products, SPE purified, read-out: MIC): 9 µM (≈ 8.61 µg/mL)
- MIC ([1]; Mycobacterium tuberculosis, H37RV, follow-up assays, read-out: MIC vs. M. tuberculosis in follow-up assays): ~9 µM (≈ 8.61 µg/mL)
- MIC ([1]; Mycobacterium tuberculosis, H37RV, read-out: minimum inhibitory concentration (MIC) against M. tuberculosis): 0.25 µM (≈ 0.239 µg/mL)
- anti-TB activity / MIC in words [1]: very low
- pIC50 [6]: 4.79
- activity against M. tuberculosis in the acute phase of infection ([7]; […], 100 and 200 mg/kg qd, untreated controls abnormally low): dose-dependent activity
- colonies on 10-2 dilution plates of lung homogenates ([7]; treated mouse lung homogenates): no colonies
- signs of overt toxicity (weight loss, ruffled fur, huddling) [8]: No signs of overt toxicity
- pIC50 ([5]; read-out: Vero IC50): 4.60
- pIC50 ([5]; read-out: toxicity based on VERO cells): 4.60
- in vitro toxicity / cytotoxicity in words ([5]; result in words): comparable to clarithromycin
